How the values were obtained:
[1] = Measurement of related substances and placement stability of lyophilized formulation (accelerated and long-term conditions); assay type: physicochemical; conditions: API, no storage item given
Experimental: The above intermediate solution was lyophilized to prepare a lyophilized trabectedin formulation. The appearance, water content, reconstitution and pH were investigated. The change of related substances after lyophilization and the placement stability under accelerated conditions (25° C. 60% RH) and long-term conditions (2-8° C.) were measured.
The above lyophilized formulations were stored under accelerated conditions (25° C. 60% RH), and the related substances and water content were measured at different time points.

[2] = High-temperature stability of lyophilized products comprising different ratios of glucose/dextran 40; assay type: physicochemical; conditions: API, no storage time given
[3] = cited from earlier work
[4] = cited from earlier work; remark: listed apart in the source

## COc1cc2c(cc1O)CCN[C@]21CS[C@@H]2c3c(OC(C)=O)c(C)c4c(c3[C@H](COC1=O)N1[C@@H]2[C@H]2c3c(cc(C)c(OC)c3O)C[C@@H]([C@@H]1O)N2C)OCO4 [API, Trabectedin]
[1]
  ET-745 (%): 0.25%
  ET-759B (%): 0.31%
  Total impurities (%): 2.56%
[2]
  ET-745 (%): 0.25%
  ET-759B (%): 0.31%
  Total impurities (%): 2.56%
[3]
  solubility in pure water: limited
[4]; refrigerated at 5° C.
  storage time: ≤ 1 month
[4]; room temperature (25° C.)
  thermal stability: rapidly degrades

— patent US10610529B2, “Trabectedin-inclusive injectable pharmaceutical composition for gastrointestinal external use and a method for manufacturing the same” (priority 2016, dated 2020)
